## CCCCCOC(=O)Nc1nc(=O)n([C@@H]2O[C@H](C)[C@@H](O)[C@H]2O)cc1F
In 2-ethylhexanol, 278.02 K
  solubility (mole fraction): 0.0011
In 2-ethylhexanol, 282.93 K
  solubility (mole fraction): 0.0013
In 2-ethylhexanol, 287.88 K
  solubility (mole fraction): 0.0019
In 2-ethylhexanol, 292.57 K
  solubility (mole fraction): 0.0027
In 2-ethylhexanol, 297.38 K
  solubility (mole fraction): 0.0036
In 2-ethylhexanol, 302.24 K
  solubility (mole fraction): 0.005
In 2-ethylhexanol, 307.13 K
  solubility (mole fraction): 0.0069
In 2-ethylhexanol, 312.04 K
  solubility (mole fraction): 0.0096
In 2-ethylhexanol, 316.73 K
  solubility (mole fraction): 0.0125
In 2-ethylhexanol, 321.76 K
  solubility (mole fraction): 0.0173
In 2-octanol, 278.04 K
  solubility (mole fraction): 0.001
In 2-octanol, 282.95 K
  solubility (mole fraction): 0.0014
In 2-octanol, 287.9 K
  solubility (mole fraction): 0.0018
In 2-octanol, 292.55 K
  solubility (mole fraction): 0.0025
In 2-octanol, 298.45 K
  solubility (mole fraction): 0.0036
In 2-octanol, 302.3 K
  solubility (mole fraction): 0.0047
In 2-octanol, 307.15 K
  solubility (mole fraction): 0.0064
In 2-octanol, 312.05 K
  solubility (mole fraction): 0.0087
In 2-octanol, 317.75 K
  solubility (mole fraction): 0.0116
In 2-octanol, 322.2 K
  solubility (mole fraction): 0.0151
In ethanol, 278.25 K
  solubility (mole fraction): 0.0099
In ethanol, 282.86 K
  solubility (mole fraction): 0.0123
In ethanol, 287.85 K
  solubility (mole fraction): 0.017
In ethanol, 292.84 K
  solubility (mole fraction): 0.0247
In ethanol, 297.75 K
  solubility (mole fraction): 0.0353
In ethanol, 302.55 K
  solubility (mole fraction): 0.048
In ethanol, 307.25 K
  solubility (mole fraction): 0.0676
In ethanol, 312.14 K
  solubility (mole fraction): 0.0933
In ethanol, 317.35 K
  solubility (mole fraction): 0.127
In ethanol, 322.13 K
  solubility (mole fraction): 0.166
In ethylene glycol, 278.65 K
  solubility (mole fraction): 0.01
In ethylene glycol, 283.15 K
  solubility (mole fraction): 0.0125
In ethylene glycol, 287.95 K
  solubility (mole fraction): 0.017
In ethylene glycol, 293 K
  solubility (mole fraction): 0.021
In ethylene glycol, 297.95 K
  solubility (mole fraction): 0.0267
In ethylene glycol, 302.95 K
  solubility (mole fraction): 0.0348
In ethylene glycol, 307.65 K
  solubility (mole fraction): 0.0437
In ethylene glycol, 312.1 K
  solubility (mole fraction): 0.0539
In ethylene glycol, 316.85 K
  solubility (mole fraction): 0.0661
In ethylene glycol, 322.25 K
  solubility (mole fraction): 0.0877
In isobutanol, 278.26 K
  solubility (mole fraction): 0.0012
In isobutanol, 283.15 K
  solubility (mole fraction): 0.0018
In isobutanol, 288.1 K
  solubility (mole fraction): 0.0029
In isobutanol, 293.38 K
  solubility (mole fraction): 0.0046
In isobutanol, 298.02 K
  solubility (mole fraction): 0.007
In isobutanol, 302.85 K
  solubility (mole fraction): 0.0107
In isobutanol, 307.4 K
  solubility (mole fraction): 0.0156
In isobutanol, 312.25 K
  solubility (mole fraction): 0.0232
In isobutanol, 316.95 K
  solubility (mole fraction): 0.0336
In isobutanol, 321.95 K
  solubility (mole fraction): 0.0492
In isopentanol, 278.25 K
  solubility (mole fraction): 0.0027
In isopentanol, 282.97 K
  solubility (mole fraction): 0.0038
In isopentanol, 288.76 K
  solubility (mole fraction): 0.0057
In isopentanol, 292.64 K
  solubility (mole fraction): 0.0074
In isopentanol, 297.33 K
  solubility (mole fraction): 0.0102
In isopentanol, 302.27 K
  solubility (mole fraction): 0.0141
In isopentanol, 307.06 K
  solubility (mole fraction): 0.0193
In isopentanol, 312.04 K
  solubility (mole fraction): 0.0267
In isopentanol, 316.78 K
  solubility (mole fraction): 0.0361
In isopentanol, 321.47 K
  solubility (mole fraction): 0.0485
In isopropanol, 277.98 K
  solubility (mole fraction): 0.0011
In isopropanol, 283.49 K
  solubility (mole fraction): 0.0016
In isopropanol, 288.07 K
  solubility (mole fraction): 0.0024
In isopropanol, 293.16 K
  solubility (mole fraction): 0.0037
In isopropanol, 297.34 K
  solubility (mole fraction): 0.0053
In isopropanol, 302.29 K
  solubility (mole fraction): 0.0079
In isopropanol, 307.07 K
  solubility (mole fraction): 0.0115
In isopropanol, 312.14 K
  solubility (mole fraction): 0.017
In isopropanol, 316.88 K
  solubility (mole fraction): 0.0241
In isopropanol, 321.47 K
  solubility (mole fraction): 0.034
In n-butanol, 278.1 K
  solubility (mole fraction): 0.0021
In n-butanol, 283.03 K
  solubility (mole fraction): 0.003
In n-butanol, 288.02 K
  solubility (mole fraction): 0.0045
In n-butanol, 293.53 K
  solubility (mole fraction): 0.007
In n-butanol, 298 K
  solubility (mole fraction): 0.0106
In n-butanol, 303.15 K
  solubility (mole fraction): 0.016
In n-butanol, 308.25 K
  solubility (mole fraction): 0.0239
In n-butanol, 312.35 K
  solubility (mole fraction): 0.0351
In n-butanol, 317.4 K
  solubility (mole fraction): 0.051
In n-butanol, 322.49 K
  solubility (mole fraction): 0.077
In n-heptanol, 278 K
  solubility (mole fraction): 0.0018
In n-heptanol, 283.15 K
  solubility (mole fraction): 0.0025
In n-heptanol, 288.33 K
  solubility (mole fraction): 0.0036
In n-heptanol, 292.53 K
  solubility (mole fraction): 0.0047
In n-heptanol, 297.63 K
  solubility (mole fraction): 0.0065
In n-heptanol, 303.3 K
  solubility (mole fraction): 0.0092
In n-heptanol, 308.35 K
  solubility (mole fraction): 0.0126
In n-heptanol, 313.25 K
  solubility (mole fraction): 0.017
In n-heptanol, 318.05 K
  solubility (mole fraction): 0.0226
In n-heptanol, 322.85 K
  solubility (mole fraction): 0.0299
In n-hexanol, 278.1 K
  solubility (mole fraction): 0.0018
In n-hexanol, 284.33 K
  solubility (mole fraction): 0.0029
In n-hexanol, 287.97 K
  solubility (mole fraction): 0.0038
In n-hexanol, 293.85 K
  solubility (mole fraction): 0.006
In n-hexanol, 297.6 K
  solubility (mole fraction): 0.008
In n-hexanol, 303.55 K
  solubility (mole fraction): 0.0125
In n-hexanol, 308.55 K
  solubility (mole fraction): 0.0173
In n-hexanol, 313.15 K
  solubility (mole fraction): 0.0241
In n-hexanol, 317.75 K
  solubility (mole fraction): 0.0333
In n-hexanol, 322.25 K
  solubility (mole fraction): 0.0461
In n-octanol, 278.65 K
  solubility (mole fraction): 0.0022
In n-octanol, 283 K
  solubility (mole fraction): 0.003
In n-octanol, 287.98 K
  solubility (mole fraction): 0.004
In n-octanol, 292.95 K
  solubility (mole fraction): 0.0055
In n-octanol, 298.35 K
  solubility (mole fraction): 0.0076
In n-octanol, 302.94 K
  solubility (mole fraction): 0.01
In n-octanol, 307.5 K
  solubility (mole fraction): 0.0131
In n-octanol, 312.35 K
  solubility (mole fraction): 0.0173
In n-octanol, 317.05 K
  solubility (mole fraction): 0.0226
In n-octanol, 322.05 K
  solubility (mole fraction): 0.0307
In n-pentanol, 278.2 K
  solubility (mole fraction): 0.002
In n-pentanol, 282.97 K
  solubility (mole fraction): 0.0031
In n-pentanol, 288.26 K
  solubility (mole fraction): 0.0051
In n-pentanol, 292.64 K
  solubility (mole fraction): 0.0071
In n-pentanol, 297.33 K
  solubility (mole fraction): 0.0101
In n-pentanol, 302.27 K
  solubility (mole fraction): 0.0146
In n-pentanol, 307.06 K
  solubility (mole fraction): 0.0205
In n-pentanol, 312.04 K
  solubility (mole fraction): 0.0292
In n-pentanol, 316.78 K
  solubility (mole fraction): 0.0404
In n-pentanol, 321.47 K
  solubility (mole fraction): 0.0555
In n-propanol, 278 K
  solubility (mole fraction): 0.0024
In n-propanol, 283.06 K
  solubility (mole fraction): 0.0037
In n-propanol, 287.98 K
  solubility (mole fraction): 0.0055
In n-propanol, 292.87 K
  solubility (mole fraction): 0.0088
In n-propanol, 297.33 K
  solubility (mole fraction): 0.0132
In n-propanol, 302.29 K
  solubility (mole fraction): 0.0205
In n-propanol, 307.07 K
  solubility (mole fraction): 0.0309
In n-propanol, 312.14 K
  solubility (mole fraction): 0.0471
In n-propanol, 316.88 K
  solubility (mole fraction): 0.0687
In n-propanol, 321.47 K
  solubility (mole fraction): 0.0997
In sec-butanol, 278.15 K
  solubility (mole fraction): 0.001
In sec-butanol, 283.17 K
  solubility (mole fraction): 0.0016
In sec-butanol, 288.13 K
  solubility (mole fraction): 0.0026
In sec-butanol, 293.35 K
  solubility (mole fraction): 0.0043
In sec-butanol, 298.44 K
  solubility (mole fraction): 0.0065
In sec-butanol, 302.9 K
  solubility (mole fraction): 0.0093
In sec-butanol, 307.65 K
  solubility (mole fraction): 0.014
In sec-butanol, 312.44 K
  solubility (mole fraction): 0.0207
In sec-butanol, 317.25 K
  solubility (mole fraction): 0.0301
In sec-butanol, 321.9 K
  solubility (mole fraction): 0.0428
In tert-butanol, 299.65 K
  solubility (mole fraction): 0.0078
In tert-butanol, 302.75 K
  solubility (mole fraction): 0.0096
In tert-butanol, 307.43 K
  solubility (mole fraction): 0.0139
In tert-butanol, 312.2 K
  solubility (mole fraction): 0.0199
In tert-butanol, 317.04 K
  solubility (mole fraction): 0.0294
In tert-butanol, 321.65 K
  solubility (mole fraction): 0.0423
In water, 278.25 K
  solubility (mole fraction): 0.0009
In water, 283.2 K
  solubility (mole fraction): 0.001
In water, 288.3 K
  solubility (mole fraction): 0.001
In water, 293.25 K
  solubility (mole fraction): 0.0011
In water, 298.25 K
  solubility (mole fraction): 0.0012
In water, 302.8 K
  solubility (mole fraction): 0.0013
In water, 308 K
  solubility (mole fraction): 0.0014
In water, 312.95 K
  solubility (mole fraction): 0.0015
In water, 317.65 K
  solubility (mole fraction): 0.0016
In water, 322.75 K
  solubility (mole fraction): 0.0017
